Data set [1] has as its target T1, Aromatase (Homo sapiens, UniProt P11511).
T1 sequence (P11511 whole entry): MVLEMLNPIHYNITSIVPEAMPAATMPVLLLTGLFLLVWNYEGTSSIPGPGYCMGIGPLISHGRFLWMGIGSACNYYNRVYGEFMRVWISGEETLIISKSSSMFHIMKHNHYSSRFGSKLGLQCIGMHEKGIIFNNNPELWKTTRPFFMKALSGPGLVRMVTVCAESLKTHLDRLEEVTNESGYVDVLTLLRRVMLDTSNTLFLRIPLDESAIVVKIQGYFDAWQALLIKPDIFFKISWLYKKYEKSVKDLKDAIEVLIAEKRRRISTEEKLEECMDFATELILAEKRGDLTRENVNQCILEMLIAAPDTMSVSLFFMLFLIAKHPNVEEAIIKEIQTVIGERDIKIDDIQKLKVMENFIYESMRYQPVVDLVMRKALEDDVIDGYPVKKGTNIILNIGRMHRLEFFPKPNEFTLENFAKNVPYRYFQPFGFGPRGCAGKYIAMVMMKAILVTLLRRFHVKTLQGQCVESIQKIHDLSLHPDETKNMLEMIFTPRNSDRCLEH
The data set can be described thus: Inhibition of human placental aromatase assessed as conversion of [1-beta-3H]androstenedione to [1beta-3H]estrone after 20 mins by liquid scintillation counting.

Data set [2] addresses T1, Aromatase. The data set can be described thus: Inhibition of human placental aromatase assessed as conversion of [1-beta-3H]androstenedione to […] at 100 uM after 20 mins by liquid scintillation counting. The following applies: for inhibition (INH): 100 µM.
The target of data set [3] is T1, Aromatase. The data set can be described thus: Competitive inhibition of human placental aromatase by Lineweaver-Burke plot analysis.
For data set [4], the target named is T1, Aromatase. As to the kind of experiment: Inactivation of human placental aromatase assessed as residual activity at 7.5 uM after 12 mins in presence of 0.5 mM L-cysteine. The following applies: 0.2 h.
The target of data set [5] is T1, Aromatase. As to the kind of experiment: Inhibition of human placental aromatase assessed as conversion of [1-beta-3H]androstenedione to […] at 30 uM after 20 mins by liquid scintillation counting.

With `CC1C(O)CC23COC(=O)C2=CCCC3C1(C)CCC1=CC(=O)OC1` (centres undefined), the IC50 (in general, the concentration at which inhibition is half-maximal) in data set [1] was determined as 126000 nM. As to `C=C1C(=O)O[C@H]2C[C@@H](C)[C@@H]3CC(=O)OC[C@@]3(C)C[C@H]12`, the “inhibition (INH)” value in data set [2] is listed as “Not Active”. Regarding `C[C@H]1C2=CC(=O)CCC(C)(O2)[C@H]2CC[C@]3(C)C(=O)CC[C@H]3[C@H]12` (some centres undefined), the IC50 in data set [1] worked out at 9800 nM. As to `Cc1nc2c(cc1C#N)C(Nc1ccc(Cl)cc1)Oc1ccc([N+](=O)[O-])cc1-2` (centres undefined), the 50% inhibitory concentration (IC50) in data set [1] came out at 678 nM. Affinity in data set [3] was put at a Ki of 385 nM. In data set [4], the outcome was Active. Take `CCn1cc(C(=O)O)c(=O)c2ccc(-c3c[nH]nc3C)nc21`: the “inhibition (INH)” value in data set [2] is “Not Active”.

`CCOC(=O)C1=C(C)C2C=C(c3cccs3)CC(c3ccc(Cl)cc3)=C2OC1=O` (centres undefined): the inhibition – broadly, the percentage by which the read-out fell short of the control – at 100 µM in data set [2] stood at 26%.

Turning to `C[C@]12CCC(=O)C(O)=C1CC[C@@H]1[C@@H]2CC[C@]2(C)C(=O)CC[C@@H]12` [FORMESTANE], the IC50 in data set [1] is 92 nM. Consider `CC1C2=CC(=O)CCC2(C)C2CCC3(C)C(=O)CCC3C12` (centres undefined), for which, in data set [1], the IC50 is 274 nM. For the same compound, affinity in data set [3] was put at a Ki of 266 nM.

On to `CC/C(=C1\C=CC(=O)S1)C(CC)c1ccc(OC(C)=O)cc1` (centres undefined), for which the 50% inhibitory concentration (IC50) in data set [1] came to 15500 nM. Regarding `CCCCSC(=O)[C@@]1(C)CC[C@H]2[C@@H](CC=C3C[C@@H](OC(C)=O)CC[C@@]32C)[C@@H]1CC#N`, the inhibition at 30 µM in data set [5] was found to be 21%. With `CCCC(=O)Oc1cc(OC(=O)CCC)c2c(C)cc(=O)oc2c1`, the IC50 in data set [1] worked out at 176000 nM.

The record behind these values is ChEMBL document CHEMBL1154072, “An efficient steroid pharmacophore-based strategy to identify new aromatase inhibitors” (Eur J Med Chem, 2009).
